This is an account of results in paper PMC4815019, “The Terminal Oxidase Cytochrome bd Promotes Sulfide-resistant Bacterial Respiration and Growth” (Scientific Reports, 2016).

The target of assay [1] is T1, cytochrome bo3 (heme-copper bo3 oxidase) (Escherichia coli, UniProt P0ABI8).
T1 construct: gene cyoB; dodecyl maltoside micelles; with Cytochrome bo(3) ubiquinol oxidase subunit 2; Cytochrome bo(3) ubiquinol oxidase subunit 3; Cytochrome bo(3) ubiquinol oxidase subunit 4
Briefly: O2 consumption, high-resolution respirometry (Oxygraph-2k); Hill fit with n = […]. The assay is classed as biochemical.

The target in assay [2] is O-acetylserine sulfhydrylase from Entamoeba histolytica (Entamoeba histolytica). Briefly: SEC; 120-ml Superdex S-200 column, buffer A (50 mM potassium phosphate, 300 mM KCl, pH 7.5, 10% glycerol), 0.7 mL/min.

In general, IC50 refers to the concentration at which inhibition is half-maximal. The stoichiometry N is a count of units in the complex or per binding partner.

T1 sequence (P0ABJ3 whole entry): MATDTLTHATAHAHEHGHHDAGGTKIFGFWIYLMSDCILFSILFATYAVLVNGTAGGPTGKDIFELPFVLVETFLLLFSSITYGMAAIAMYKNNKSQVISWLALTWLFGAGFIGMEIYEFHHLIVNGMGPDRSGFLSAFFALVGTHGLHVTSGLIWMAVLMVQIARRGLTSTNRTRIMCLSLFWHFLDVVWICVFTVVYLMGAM
T1 sequence (P0ABI8 whole entry): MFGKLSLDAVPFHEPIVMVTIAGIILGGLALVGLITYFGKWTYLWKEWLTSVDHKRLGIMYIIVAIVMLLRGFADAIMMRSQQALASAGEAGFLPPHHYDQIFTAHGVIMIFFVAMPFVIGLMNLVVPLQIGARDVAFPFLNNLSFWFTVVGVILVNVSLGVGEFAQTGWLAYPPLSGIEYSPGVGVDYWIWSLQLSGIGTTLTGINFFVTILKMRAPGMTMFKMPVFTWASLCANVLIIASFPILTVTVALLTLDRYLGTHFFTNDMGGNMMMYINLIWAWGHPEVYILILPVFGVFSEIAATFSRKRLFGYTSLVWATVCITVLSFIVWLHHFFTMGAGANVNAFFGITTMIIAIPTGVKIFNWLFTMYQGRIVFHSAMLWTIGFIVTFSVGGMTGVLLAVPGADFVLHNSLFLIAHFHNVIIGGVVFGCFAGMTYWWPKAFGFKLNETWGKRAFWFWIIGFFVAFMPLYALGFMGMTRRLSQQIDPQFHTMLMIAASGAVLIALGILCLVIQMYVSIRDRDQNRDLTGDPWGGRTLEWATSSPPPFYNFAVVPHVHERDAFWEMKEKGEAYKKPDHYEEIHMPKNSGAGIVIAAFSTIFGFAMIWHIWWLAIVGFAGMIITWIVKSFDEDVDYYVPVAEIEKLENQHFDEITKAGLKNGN
T1 sequence (P0ABJ1 25-315, further chain): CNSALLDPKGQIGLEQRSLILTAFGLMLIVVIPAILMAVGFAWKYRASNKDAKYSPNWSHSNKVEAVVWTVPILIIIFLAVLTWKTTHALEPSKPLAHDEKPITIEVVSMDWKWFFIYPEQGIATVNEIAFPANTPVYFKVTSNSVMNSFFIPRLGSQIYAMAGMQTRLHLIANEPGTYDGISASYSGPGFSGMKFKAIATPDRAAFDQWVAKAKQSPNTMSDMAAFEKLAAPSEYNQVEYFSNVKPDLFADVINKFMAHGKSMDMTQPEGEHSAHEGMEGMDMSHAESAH
T1 sequence (P0ABJ6 whole entry, further chain): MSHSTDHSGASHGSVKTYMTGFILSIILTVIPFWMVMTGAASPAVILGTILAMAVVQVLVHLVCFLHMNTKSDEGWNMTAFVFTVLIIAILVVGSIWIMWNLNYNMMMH

In assay [1], `S` [NaHS] returned an IC50 of 1.1 ± 0.1 µM.
In assay [2], “O-acetylserine sulfhydrylase from Entamoeba histolytica (enzyme)” registered a stoichiometry N of 2.
